Patent US8426406B2, “Glucocorticoid receptor agonist comprising 2,2,4-trimethyl-6-phenyl-1,2-dihydroquinoline derivatives having substituted oxy group” (Santen Pharmaceutical Co., Ltd., priority 2008, dated 2013)

Columns and labels:
[1] = system: atopic dermatitis model in mice; test: Inhibitory effect test on the vascular hyper-permeability in the atopic dermatitis model; assay type: in vivo; details: DNFB, 1% (W/W) test compound ointment on ears, 21 times in total, dye leakage vs vehicle, 12 ears in 6 animals
Description: In order to evaluate the effects in atopic dermatitis of the present compound, the inhibitory effects of test compound on the vascular hyper-permeability in the atopic dermatitis model in mice were investigated. Procedure of atopic dermatitis model and estimation method was used according to the method of Nagai et al. (J. Pharmacol. Exp. Ther., 283: 321-327 (1997)) with modification. The inhibitory effects were calculated based on dye leakage in vehicle-treated group (control) and test compound-treated group.
The test compound was mixed with white petrolatum, whereby a 1% (W/W) test compound ointment was prepared.
1) Mice were challenged by topical instillation of 25 μL of 0.15% DNFB solution on both sides of both ears once a week for 5 weeks.
2) Test compounds were administered by topical instillation of 25 μL ointments on each side of both ears five times a week from the previous day of the 1st DNFB painting to the previous day of 5th DNFB painting, 21 times in total. Mice were painted with the test compound ointment onto the ear, 25 μL to the inner and 25 μL to outer side. In vehicle-treated group (control group), white petrolatum was administered by topical instillation in the same way.
3) Dyes, a solution of 0.2% Evans blue, were administered to mice intravenously just after the 5th DNFB painting. Ear tissues were removed 2 hours after the intravenous injection of dyes. Then each removed tissue was put into dye extract and dye was extracted. The absorbance of each extract was determined with a spectrophotometer. The amount of dye leakage was calculated from obtained absorbance. The inhibition ratio of the vascular hyper-permeability associated with atopic dermatitis of test compound-treatment group was calculated according to the following equation 1. The inhibition ratio of the vascular hyper-permeability of test compound-treatment group(%)=(1−Ax/Ao)×100 (Calculation Equation 1) Ao: the amount of dye leakage in vehicle-treated group (Control) Ax: the amount of dye leakage in test compound-treated group (Result and Discussion)

[2] = system: IL-6 production induced by lipopolysaccharide (LPS) in human corneal epithelial cells; test: Evaluation test for GR agonist activity: inhibition of LPS-induced IL-6 production in human corneal epithelial cells (HCE-T); assay type: cell-based; details: Corneal epithelial cell, 10 μL of 100 μM test compound solution per well, 4 hours incubation, efficacy relative to DEX
In short: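 SV40-immortalized HCE-T cells were treated with test compound (100 μM solution, stock before dilution into well) plus LPS (1 μg/mL solution, likewise pre-dilution) for 4 hours in 10% FBS-DMEM/F12. IL-6 in supernatants was measured by HTRF. Inhibition was calculated relative to LPS-plus-DMSO and no-LPS controls, and efficacy was expressed as % of DEX inhibition.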

[3] = system: allergic conjunctivitis model in mice; test: Inhibitory effect on the vascular hyper-permeability in allergic conjunctivitis model; assay type: in vivo; details: Mus musculus, 1% (W/V) test compound suspension instilled to the right eye three times before ovalbumin instillation, dye leakage vs vehicle, mean of 5-6 eyes, read-out: The inhibition ratio of the vascular hyper-permeability (%)
Description: In order to evaluate anti-allergic effect, inhibitory effect on the vascular hyper-permeability in allergic conjunctivitis model in mice was examined. This effect was calculated based on dye leakages of vehicle-treated group (control group) and test compound-treated group.
By adding 0.5% polysorbate 80/saline to the test compound, a 1% (W/V) test compound suspension was prepared.
1) Ovalbumin absorbed on aluminum hydroxide gel was dissolved in saline (20 μg ovalbumin/mL), and male BALE/c mice, 6 weeks old, were actively sensitized to the antigen by intraperitoneal injections of 500 μL of it.
2) On the 6th day from sensitization, sensitized mice were boosted by additional intraperitoneal injections of 500 μL ovalbumin absorbed on aluminum hydroxide gel (20 μg ovalbumin/mL).
3) On the 11th day, 12th day, 13th day, 14th day and 15th day from the first sensitization, allergic conjunctivitis were induced by installations to the right eyes of the mice of […] of 50% glycerol solution containing 15% (W/V) ovalbumin.
4) […] of test compound suspension per eye was instilled to the right eye of the above mice 15 min, 1 hr and 3 hrs before ovalbumin instillation (three times) on the 15th day from sensitization. In vehicle-treated group (control group), the mice were instilled with 0.5% polysorbate 80/saline in substitution for test compound suspension.
5) Just before ovalbumin instillation on the 15th day from sensitization, all animals received a tail intravenous injection of 0.1% Evans blue dye. The right periocular tissues of the mice, which were the leaked parts of dye, were collected 30 min after ovalbumin instillation. The dye was extracted from the tissues with the dye extraction liquid. Then the absorbance of the dye extract was measured. The dye leakage was calculated from the absorbance value, and the inhibition ratio of the vascular hyper-permeability of test compound-treated group was calculated according to calculation equation 1. The inhibition ratio of the vascular hyper-permeability of test compound-treated group(%)=(1−Ax/Ao)×100 (Calculation Equation 1) Ao: Dye leakage in vehicle-treated group (control group) Ax: Dye leakage in test compound-treated group (Test Results and Discussion)

Row | Structure (SMILES) | Inhibition ratio of the vascular hyper-permeability (%) [1] [%] | Emax [2] [%] | inhibition in vivo at 10000 µg/mL [3] [%]
1 | CCCS(=O)(=O)Oc1ccc(-c2ccc3c(c2CNc2ccccc2OC)C(C)=CC(C)(C)N3)c(OC)c1 [Compound 4-18, 5-(2-Methoxyphenylaminomethyl)-6-(2-methoxy-4-propylsulfonyloxyphenyl)-2,2,4-trimethyl-1,2-dihydroquinoline] | 30 | 89 | 21
2 | COc1cc(OC(=O)c2ccco2)ccc1-c1ccc2c(c1COc1cc(F)ccc1C)C(C)=CC(C)(C)N2 [Compound 1-13, 5-(5-Fluoro-2-methylphenoxymethyl)-6-[4-(furan-2-ylcarbonyloxy)-2-methoxyphenyl]-2,2,4-trimethyl-1,2-dihydroquinoline] | 13 | 94 | 24
3 | COc1cc(OC(=O)c2cccnc2)ccc1-c1ccc2c(c1COc1cc([N+](=O)[O-])ccc1C)C(C)=CC(C)(C)N2 [Compound 1-72, 6-[2-Methoxy-4-(pyridin-3-ylcarbonyloxy)phenyl]-5-(2-methyl-5-nitrophenoxymethyl)-2,2,4-trimethyl-1,2-dihydroquinoline] | 15 | 82 | 21
4 | COc1cc(OC(=O)c2ccsc2)ccc1-c1ccc2c(c1COc1cc(F)ccc1C)C(C)=CC(C)(C)N2 [Compound 1-12, 5-(5-Fluoro-2-methylphenoxymethyl)-6-[2-methoxy-4-(thiophen-3-ylcarbonyloxy)phenyl]-2,2,4-trimethyl-1,2-dihydroquinoline] | 22 | 85 | 17
